Earlier results as cited in US20240374543A1, “PHARMACEUTICAL COMPOSITIONS” (priority 2021, published 2024).

Settings: determined by the FDA

N-Nitrosodimethylamine [NDMA]
acceptable daily intake limit of NDMA: 96 nanogram per day
